This experiment has as its target T1, Thymidylate kinase (Mycobacterium tuberculosis, UniProt P9WKE1).
T1 sequence (P9WKE1 whole entry): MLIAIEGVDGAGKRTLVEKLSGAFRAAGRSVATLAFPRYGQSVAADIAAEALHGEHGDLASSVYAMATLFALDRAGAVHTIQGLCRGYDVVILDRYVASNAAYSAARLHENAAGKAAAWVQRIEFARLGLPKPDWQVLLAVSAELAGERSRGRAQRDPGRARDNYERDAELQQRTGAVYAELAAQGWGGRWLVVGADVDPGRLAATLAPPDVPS
Description: Inhibition of recombinant Mycobacterium tuberculosis TMPK overexpressed in Escherichia coli assessed as inhibition constant by spectrophotometric assay.

Usually Ki stands for the dissociation constant of the complex between target and ligand, obtained from inhibition or displacement.

With `Cc1cn(C/C=C\CN2c3cccc4cccc(c34)S2(=O)=O)c(=O)[nH]c1=O`, the Ki was 270 nM.

The values are drawn from ChEMBL document CHEMBL5360529, “Pyrimidine derivatives with antitubercular activity” (Eur J Med Chem, 2023).
